Experimental data as given in ChEMBL document CHEMBL1201862, “PubChem BioAssay data set” (2004).
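A five-concentration, 48-hour dose response in 96-well plates underlies each endpoint, interpolated linearly between surrounding concentrations. Here, GI50 denotes the concentration required for 50% inhibition of growth.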 Activity calls are given as the source filed them. Cut-off read from the data, not from the text of the source: active = GI50 up to about 1.1 µM and inactive = higher. Where a SMILES comes first, the peptide text is derived from it. The star is where a group is joined. Boc = CC(C)(C)OC(=O)*

Tests used:
Experiment in all cases: NCI tumour cell line growth inhibition, 48 h
DMS-114 = system: DMS-114
DU-145 = system: DU-145
Hs-578T = system: Hs-578T
MDA-MB-435 = system: MDA-MB-435
T47D = system: T47D
DMS-273 = system: DMS-273
HOP-18 = system: HOP-18
XF498 = system: XF498
RXF 631 = system: RXF 631

| SMILES | GI50 (DMS-114) | GI50 (DU-145) | GI50 (Hs-578T) | GI50 (MDA-MB-435) | GI50 (T47D) | GI50 (DMS-273) | GI50 (HOP-18) | GI50 (XF498) | GI50 (RXF 631) |
| --- | --- | --- | --- | --- | --- | --- | --- | --- | --- |
| O=C(NN1C(=O)C(Cl)C1c1ccccc1O)c1ccccc1O (stereo unspecified) | 6.82 µM (inactive) |  |  |  |  |  |  |  |  |
| O=C1C(Cl)=C(Sc2nnc3c4ccccc4c4ccccc4c3n2)C(=O)c2ccccc21 |  | 8.81 µM (inactive) | 34.3 µM (inactive) | 1.85 µM (inactive) | 6.24 µM (inactive) |  |  |  |  |
| CCc1c(O)c2c(c(O)c1C(C)=O)C(=O)c1c(cc(O)c(C(=O)O)c1C(=O)O)C2=O |  | > 100 µM (inactive) | > 100 µM (inactive) | > 100 µM (inactive) | > 100 µM (inactive) |  |  |  |  |
| Cc1nc2ccccc2c(=O)n1Nc1ccc(C(=O)O)cc1 | > 100 µM (inactive) |  |  |  |  | > 100 µM (inactive) | > 100 µM (inactive) | > 100 µM (inactive) |  |
| C=C1C(C)C2C(Cc3ccccc3)NC(=O)C23C(OC(C)=O)C=CC(C)(O)C(=O)C(C)C/C=C/C3C1O (stereo unspecified) | 8.71 µM (inactive) | 28.2 µM (inactive) | 0.0652 µM (active) | 51.1 µM (inactive) |  | 1.96 µM (inactive) |  | 2.01 µM (inactive) | 0.117 µM (active) |
| C=C(C)[C@@H]1CC[C@@H]2C(=CC[C@]3(C)C([C@H](C)CC/C=C(/C)C(=O)O)CC[C@@]23C)[C@@]1(C)CCC(=O)O (stereo partly specified) |  | 24.2 µM (inactive) | 33.3 µM (inactive) | 29.2 µM (inactive) | 45.8 µM (inactive) |  |  |  |  |
| Cc1cnc(Cl)nc1C(C#N)c1nc2ccccc2s1 (stereo unspecified) |  | 31.8 µM (inactive) |  | 22.5 µM (inactive) | 34.1 µM (inactive) |  |  |  |  |
| NC(=O)c1c[se]c(C2OC(COP(=O)(O)CP(=O)(O)OCC3OC(n4cnc5c(N)ncnc54)C(O)C3O)C(O)C2O)n1 (stereo unspecified) | 97.5 µM (inactive) |  |  |  |  | 38.6 µM (inactive) | > 100 µM (inactive) | > 100 µM (inactive) |  |
| O=[N+]([O-])c1ccc(/C=N/Nc2nc3ccccc3[nH]2)o1 |  | 13.9 µM (inactive) | 33.3 µM (inactive) | 4.45 µM (inactive) | 13.6 µM (inactive) |  |  |  |  |
| O=[N+]([O-])c1ccc(Cl)cc1N/N=C/c1ccnc2ccccc12 |  | > 100 µM (inactive) | 52.4 µM (inactive) | 97.3 µM (inactive) | > 100 µM (inactive) |  |  |  |  |
| COc1cccc2c(Nc3ccc(S(=O)(=O)Nc4ncccn4)cc3)c3ccc([N+](=O)[O-])cc3nc12 |  | 19.5 µM (inactive) | > 100 µM (inactive) | 45.6 µM (inactive) | 8.22 µM (inactive) |  |  |  |  |
| COc1ccc(Cc2nn(C3OC(COC(C)=O)C(OC(C)=O)C(OC(C)=O)C3OC(C)=O)c(=S)n(-c3ccc(OC)cc3)c2=O)cc1 (stereo unspecified) |  |  |  |  |  | > 100 µM (inactive) | > 94 µM (inactive) | > 100 µM (inactive) |  |
| CC(C)C(=O)/C=C/c1c(Cl)cccc1Cl |  | 3.51 µM (inactive) | 2.35 µM (inactive) | 3.08 µM (inactive) | 2.95 µM (inactive) |  |  |  |  |
| Cc1ccc(S(=O)(=O)OC[C@@H]2CO2)cc1 |  |  |  |  |  | > 100 µM (inactive) | > 100 µM (inactive) |  | 68.7 µM (inactive) |
| COc1cccc(NC(=O)CSc2nnc(-c3ccc(NC(C)=O)cc3)o2)c1 | > 100 µM (inactive) |  |  |  |  | > 100 µM (inactive) | 14 µM (inactive) |  |  |
| O=C1C(Br)=CC2([N+](=O)[O-])CCNC3=C(C4=NCCc5c[nH]c(c54)C3=O)C2=C1Br (stereo unspecified) | 0.163 µM (active) |  |  |  |  | 1.72 µM (inactive) | 14.4 µM (inactive) | 2.24 µM (inactive) |  |
| CCOCNC(=O)N(COCC)COCC | > 100 µM (inactive) |  |  |  |  |  |  | > 100 µM (inactive) | > 100 µM (inactive) |
| COc1ccc2cc(C(=O)O)ccc2c1OC |  | 69.5 µM (inactive) | > 100 µM (inactive) | > 100 µM (inactive) | > 100 µM (inactive) |  |  |  |  |
| CCCN(CCC)c1cc2c(cc1F)c(=O)c(C(=O)O)cn2-c1ccc(N2CCN(C)CC2)cn1 |  | 19.5 µM (inactive) | 17 µM (inactive) | 19.4 µM (inactive) | 17 µM (inactive) |  |  |  |  |
| Cc1c2cnccc2c(C)c2c1c1ccccc1n2CC1CO1 (stereo unspecified) | 0.82 µM (active) |  |  |  |  | 0.638 µM (active) | 1.86 µM (inactive) |  |  |

| SMILES | GI50 (DMS-114) | GI50 (DU-145) | GI50 (Hs-578T) | GI50 (MDA-MB-435) | GI50 (T47D) | GI50 (DMS-273) | GI50 (HOP-18) | GI50 (XF498) | GI50 (RXF 631) |
| --- | --- | --- | --- | --- | --- | --- | --- | --- | --- |
| CN1NC(c2ccc(Cl)cc2)=C(C#N)C(=O)CC1c1ccccc1 (stereo unspecified) | > 100 µM (inactive) |  |  |  |  | > 100 µM (inactive) | 29.9 µM (inactive) |  | > 100 µM (inactive) |
| O=C(Cc1nc2ccc(C(=O)c3ccccc3)cc2nc1O)C(=O)Nc1nc2ccccc2[nH]1 | 23.8 µM (inactive) |  |  |  |  | 20.9 µM (inactive) | 77.1 µM (inactive) |  | 65.5 µM (inactive) |
| COc1cc(S(=O)(=O)Nc2ccc(-c3csc(N4C(=O)C(C)SC4c4cccs4)n3)cc2)ccc1Cl (stereo unspecified) |  | 20.7 µM (inactive) | 6.17 µM (inactive) | 30 µM (inactive) | 10.8 µM (inactive) |  |  |  |  |
| CCOC(=O)Oc1cc2ccsc2c2c1c1ccccc1n2C(=O)OCC |  | 32.8 µM (inactive) | 36.4 µM (inactive) | 68.9 µM (inactive) | 28.6 µM (inactive) |  |  |  |  |
| CC1C2CC(CC2O)C1(C)C (stereo unspecified) |  | > 100 µM (inactive) | > 100 µM (inactive) | > 100 µM (inactive) | > 100 µM (inactive) |  |  |  |  |
| CC(=O)NNc1nc(C)c(C(=O)NNC(=O)C(=O)Nc2ccccc2C#N)s1 | > 100 µM (inactive) |  |  |  |  | > 100 µM (inactive) | > 100 µM (inactive) |  | > 100 µM (inactive) |
| NC(=O)CCC(NCc1c2ccccc2[n+]([O-])c2ccccc12)C(=O)O (stereo unspecified) | 41.9 µM (inactive) |  |  |  |  | 56.8 µM (inactive) | 33.5 µM (inactive) |  |  |
| CN1CCC(C(O)(c2ccccc2)c2ccc(Br)cc2)CC1 (stereo unspecified) |  | 81.5 µM (inactive) | 23.8 µM (inactive) | 15.5 µM (inactive) | 23 µM (inactive) |  |  |  |  |
| CCOC(=O)C(Cc1ccc(N=NN(C)C)cc1)NC(=O)CC1c2ccccc2-c2ccccc21 (stereo unspecified) | > 100 µM (inactive) |  |  |  |  | 55.3 µM (inactive) |  |  |  |
| COC(=O)c1cccc(N[C@@H]2c3cc4c(cc3C(c3cc(OC)c(O)c(OC)c3)[C@H]3C(=O)OCC32)OCO4)c1 (stereo partly specified) | 0.568 µM (active) |  |  |  |  | 0.362 µM (active) | 2.62 µM (inactive) | 0.701 µM (active) |  |
| COc1cc(O)c2c(=O)cc(C3(O)C=CC(=O)C=C3)oc2c1 |  | 0.839 µM (active) | 0.968 µM (active) |  | 0.378 µM (active) |  |  |  |  |
| c1ccc(-c2nnc(-c3nsc4ccccc34)o2)cc1 | > 100 µM (inactive) |  |  |  |  | > 100 µM (inactive) |  |  |  |
| NC(C/C=C/P(=O)(O)O)C(=O)O (stereo unspecified) |  | > 100 µM (inactive) | > 100 µM (inactive) | > 100 µM (inactive) | > 100 µM (inactive) |  |  |  |  |
| COc1ccc(-c2cc(O)c3ccc(C)nc3n2)cc1 |  | > 100 µM (inactive) | > 100 µM (inactive) |  | 96.8 µM (inactive) |  |  |  |  |
| Nc1nc(O)c2ncn(C3C=CC(CO)O3)c2n1 (stereo unspecified) |  | > 100 µM (inactive) | > 100 µM (inactive) | > 100 µM (inactive) | > 100 µM (inactive) |  |  |  |  |
| CC(C)[C@](O)(C(=O)OCC1=CCN2CC[C@@H](O)[C@@H]12)[C@H](C)O | 368 µM (inactive) |  |  |  |  | > 375 µM (inactive) | > 375 µM (inactive) | > 375 µM (inactive) |  |
| O=C(NC1CCN(Cc2ccccc2)CC1)c1cccc(I)c1 |  | 72.3 µM (inactive) | 29 µM (inactive) | 17.3 µM (inactive) | 24.1 µM (inactive) |  |  |  |  |
| O=C1NC(=O)C2C3C=CC(C12)C1C2C(=O)NC(=O)C2C31 (stereo unspecified) | 125 µM (inactive) | > 250 µM (inactive) | 100 µM (inactive) | > 1000 µM (inactive) | > 250 µM (inactive) | 116 µM (inactive) | 222 µM (inactive) | 143 µM (inactive) |  |
| CC(C)(C)OC(=O)NC(Cc1ccccc1)C(=O)N1CCCC1C(N)=O (stereo not drawn) (Boc-Phe-Pro-NH2; configuration not given here) |  | > 100 µM (inactive) |  | > 100 µM (inactive) | > 100 µM (inactive) |  |  |  |  |
